Test results: paper PMC11596563, “N-Aryl Benzimidazole and Benzotriazole Derivatives and Their Hybrids as Cytotoxic Agents: Design, Synthesis and Structure–Activity Relationship Studies” (Molecules, 2024)

Columns and labels:
A549 = experiment: MTT test, cytotoxic effect; assay type: cell-based; details: Homo sapiens, 24 h treatment, 0.1 to 100 µM, concentration that causes 50% cell death
Protocol: (§1) At the first stage of biological testing, we studied the effect of the synthesized compounds on the survival of cells of both tumoral and normal origin. […] In our work, the cytotoxic profile of the synthesized molecules was assessed using the MTT test, based on the ability of a colorless tetrazolium salt (3-[4,5-dimethylthiazol-2-yl]-2,5-diphenyltetrazolium bromide, MTT) to be reduced to colored formazan in the presence of the mitochondrial enzymes of living cells. For this purpose, a number of cell lines of tumoral origin (SH-SY5Y, A549, MCF-7 and SW-480), as well as normal origin (Hek-293), were used.
(§2) For the experiments, we used tumor cell cultures SH-SY5Y, human neuroblast-like cells, A549, human lung adenocarcinoma, MCF-7, human mammary adenocarcinoma, SW-480 and human colorectal adenocarcinoma, as well as cells of normal origin obtained from human embryonic kidneys, Hek-293.
(§3) All cells were cultured in the Dulbecco Modified Eagle’s Medium (DMEM) with a high glucose content, 10% fetal bovine serum and 1% penicillin-streptomycin as an antibiotic, in a moist incubator with 5% CO2 at 37°C.
(§4) To measure cellular metabolic activity, a colorimetric analysis was performed using the MTT reagent (3-(4,5–dimethylthiazol-2-yl)-2,5-diphenyltetrazolium bromide), which is an inhibitor of viable cells [73, 74].
(§5) • Briefly, cells in the logarithmic growth phase were digested and resuspended to adjust the cell density. The cells were then seeded in 96-well plates at a density of 10,000 cells per well. After 24 h of the incubation of the cells under the standard conditions described above (for the purpose of cell adhesion), the cells were treated with the synthesized compounds at different concentrations (0.1 to 100 µM) or a vehicle alone as a control (1% DMSO) for 24 h. After the incubation time of the cells with synthesized compounds, 5 mg/mL of MTT was added to the cells and incubated for 2 h at 37 °C. Next, the supernatant was discarded; after that, the formazan crystals were dissolved in a DMSO and the absorbance of each well was measured at 570 nm using a multifunctional microplate reader, Cytation3 (Biotech Tools Inc., Winooski, USA).

MCF-7 = experiment: MTT test, cytotoxic effect; assay type: cell-based; details: Homo sapiens, MCF7, 24 h treatment, 0.1 to 100 µM, concentration that causes 50% cell death
Protocol: as §1, §2, §3, §4, §5

SW-480 = experiment: MTT test, cytotoxic effect; assay type: cell-based; details: Homo sapiens, SW480, 24 h treatment, 0.1 to 100 µM, concentration that causes 50% cell death
Protocol: as §1, §2, §3, §4, §5

[1] = MTT test, cytotoxic effect on cells of normal origin; assay type: cell-based, human; details: human, Hek-293 cells (normal origin), 24 h treatment, 0.1 to 100 µM, normal cells, concentration that causes 50% cell death
Protocol: as §1, §2, §3, §4, §5

SH-SY5Y = experiment: cells; details: Homo sapiens, 24 h, read-out: IC50 of the cytotoxic effect, SH-SY5Y
Protocol: as §1, §2, §3, §4, §5

Hek-293 = experiment: MTT test, cytotoxic effect on cells of normal origin; assay type: cell-based, human; details: Hek-293
Protocol: as §1, §2, §3, §4, §5

[2] = system: Fe(II)-induced lipid peroxidation (LPO) of rat brain homogenate; experiment: Fe(II)-induced lipid peroxidation, modified TBARS test; assay type: biochemical; details: Fe(II) 500 μM, rat brain homogenate 2 mg/mL; for IC50: 1 to 300 μM, read-out: IC50 of the lipid peroxidation inhibitory effect
Protocol: In our work, the antioxidant status of the compounds was determined by their ability to influence the process of Fe(II)-induced lipid peroxidation (LPO) of rat brain homogenate (2 mg/mL). The effect of the substances on LPO was studied using a modified version of the TBA test in a plate format. This test is based on the reaction of 2-thiobarbituric acid with intermediate LPO products, resulting in the formation of a colored trimethine complex, the main role in the formation of which belongs to malondialdehyde. […] This was expressed in a decrease in the level of malondialdehyde in the system by 70, 79 and 71%, respectively, tending to the values of the well-known antioxidant Trolox. Additionally, the IC50 values of the lipid peroxidation inhibitory effect were calculated for these molecules, the values of which are presented in Figure 2B.
To obtain rat brain homogenate, an animal previously anesthetized in a CO2 chamber was decapitated using a guillotine. The brain was homogenized in a buffer containing KCl (120 mM) and HEPES (20 mM), pH = 7.4 at 4 ° C and centrifuged at 1500 g to obtain a supernatant.
The intensity of the lipid peroxidation of the rat brain homogenate was evaluated using a modified TBARS test. […] In the wells of the negative control, the Fe(II) was replaced with water; in samples with a positive control, a solvent was introduced instead of the studied compounds.
At the end of incubation, a TBA reagent ([…] thiobartituric and 1% trichloroacetic acids dissolved in 0.25 N HCl) was added to each well and heated at 90 °C for 90 min.

A549 cells = experiment: Wound-healing assay (scratch test); assay type: cell-based, human; details: 1 μM
Excerpt: It is also well known that migration and proliferation of cancer cells are key processes involved in the metastatic cascade of malignant neoplasms. In turn, the ability of therapeutic agents to inhibit these processes is considered a promising property of antitumor agents. In this regard, in order to assess the possible antimetastatic potential of cytotoxic diphenylamines 6b, c and d, we analyzed the effect of the substances on the migration and proliferation of tumor cells A549 in a scratch test.
Based on a preliminary series of experiments, 1 μM was chosen as the concentration used in this test, excluding the intrinsic cytotoxic effect of the substances. […] Thus, the data obtained 24 h after the damage was applied allowed us to evaluate the migration capacity of the cells, minimizing the contribution of cell proliferation.
The migration activity of A549 cells was determined by the wound-healing assay (scratch test). To do this, cells (15,000 cells per well) were seeded in a 96-well plate and cultured under the standard conditions described above. After 24 h of incubation, when the cells became 90% confluent, the medium was selected and an identical scratch wound across the center of each well was made by a 200 µL pipette tip.
To remove detached cells, the cell monolayer was washed twice with PBS; after that, the growth media and test compounds at 1 µM (or 1% DMSO as a solvent) were added to each well. A phase contrast microscope at a ×40 magnification was used to take photomicrographs after making the wound and then 24 h, 48 h and 72 h later.
The analysis of the obtained images was calculated using the open-source program ImageJ [80] and a special module: Wound_healing_size_tool.

Row | Structure (SMILES) | melting point [°C] | IC50 [2] [µM] | IC50 (A549) [µM] | IC50 (MCF-7) [µM] | IC50 (SW-480) [µM] | IC50 at 24 h [1] [µM] | IC50 (SH-SY5Y) [µM] | cytotoxic effect on cell line of normal origin (Hek-293) | decrease in the level of malondialdehyde ([2]; compounds at 100 μM) [%] | migration capacity, decrease in the scratch width vs control (A549 cells; 24 h after the damage) | ability to suppress the migratory activity of A549 tumor cells (A549 cells; conclusion)
1 | Nc1cc(Cl)ccc1-n1cnc2ccccc21 [4b, 2-(1H-benzimidazol-1-yl)-5-chloroaniline] | 192 to 195 | – | ≥ 100 | ≥ 100 | ≥ 100 | ≥ 100 | ≥ 100 | – | – | – | –
2 | O=[N+]([O-])c1cc(C(F)(F)F)ccc1-n1nnc2ccccc21 [3c, 1-[2-Nitro-4-(trifluoromethyl)phenyl]-1H-benzotriazole] | 133 to 136 | – | ≥ 100 | ≥ 100 | ≥ 100 | ≥ 100 | ≥ 100 | – | – | – | –
3 | O=[N+]([O-])c1cc(C(F)(F)F)ccc1Nc1cc(C(F)(F)F)ccc1-n1cnc2ccccc21 [5a, N-[2-(1H-benzimidazol-1-yl)-5-(trifluoromethyl)phenyl]-2-nitro-4-(trifluoromethyl)aniline] | 180 to 183 | – | ≥ 100 | ≥ 100 | ≥ 100 | ≥ 100 | ≥ 100 | – | – | – | –
4 | O=[N+]([O-])c1cc(Cl)ccc1-n1cnc2ccccc21 [3b, 1-(4-Chloro-2-nitrophenyl)-1H-benzimidazole] | 102 to 105 | – | ≥ 100 | ≥ 100 | ≥ 100 | ≥ 100 | ≥ 100 | – | – | – | –
5 | Nc1cc(C(F)(F)F)ccc1-n1nnc2ccccc21 [4c, 2-(1H-benzotriazol-1-yl)-5-(trifluoromethyl)aniline] | 136 to 139 | – | 65.38 ± 0.17 | 75.2 ± 1.43 | ≥ 100 | ≥ 100 | 39.59 ± 0.05 | without affecting the survival | – | – | –
6 | O=[N+]([O-])c1cc(C(F)(F)F)ccc1Nc1cc(Cl)ccc1-n1nnc2ccccc21 [5d, N-[2-(1H-benzotriazol-1-yl)-5-chlorophenyl]-2-nitro-4-(trifluoromethyl)aniline] | 178 to 181 | – | ≥ 100 | ≥ 100 | ≥ 100 | ≥ 100 | ≥ 100 | – | – | – | –
7 | CCOC(=O)c1ccc(-n2nnc3ccccc32)c(N)c1 [4d, Ethyl 3-amino-4-(1H-benzotriazol-1-yl)benzoate] | 132 to 136 | – | ≥ 100 | ≥ 100 | ≥ 100 | ≥ 100 | ≥ 100 | – | – | – | –
8 | Nc1cc(C(F)(F)F)ccc1-n1cnc2ccccc21 [4a, 2-(1H-benzimidazol-1-yl)-5-(trifluoromethyl)aniline] | 209 to 210 | – | 67.17 ± 0.12 | 65.26 ± 0.07 | 84.03 ± 0.38 | 82.89 ± 0.46 | 66.75 ± 0.41 | – | – | – | –
9 | Cc1c(C)c2c(c(C)c1O)CCC(C)(C(=O)O)O2 (stereo not drawn) [Trolox, reference compound] | – | 32.45 ± 0.24 | – | – | – | – | – | – | – | – | –
10 | O=[N+]([O-])c1cc(C(F)(F)F)ccc1Nc1cc(C(F)(F)F)ccc1-n1nnc2ccccc21 [5b, N-[2-(1H-benzotriazol-1-yl)-5-(trifluoromethyl)phenyl]-2-nitro-4-(trifluoromethyl)aniline] | 203 to 204 | – | ≥ 100 | ≥ 100 | ≥ 100 | ≥ 100 | ≥ 100 | – | – | – | –
11 | CCOC(=O)c1ccc(-n2nnc3ccccc32)c([N+](=O)[O-])c1 [3d, Ethyl 4-(1H-benzotriazol-1-yl)-3-nitrobenzoate] | 115 to 119 | – | ≥ 100 | ≥ 100 | ≥ 100 | ≥ 100 | ≥ 100 | – | – | – | –
12 | CCOC(=O)c1ccc(Nc2cc(C(F)(F)F)ccc2-n2nnc3ccccc32)c([N+](=O)[O-])c1 [5c, Ethyl 4-[2-(1H-benzotriazol-1-yl)-5-(trifluoromethyl)anilino]-3-nitrobenzoate] | 192 to 196 | – | ≥ 100 | ≥ 100 | ≥ 100 | ≥ 100 | ≥ 100 | – | – | – | –
13 | O=[N+]([O-])c1cc(C(F)(F)F)ccc1-n1cnc2ccccc21 [3a, 1-(2-Nitro-4-(trifluoromethyl)phenyl)-1H-benzimidazole] | 130 to 132 | – | ≥ 100 | 92.4 ± 1.4 | ≥ 100 | 77.3 ± 2.12 | 62.2 ± 0.11 | – | – | – | –
14 | O=[N+]([O-])c1cc(Cl)ccc1-n1nnc2ccccc21 [3e, 1-(4-Chloro-2-nitrophenyl)-1H-benzotriazole] | 134 to 137 | – | ≥ 100 | ≥ 100 | ≥ 100 | ≥ 100 | ≥ 100 | – | – | – | –
15 | Nc1cc(Cl)ccc1-n1nnc2ccccc21 [4e, 2-(1H-benzotriazol-1-yl)-5-chloroaniline] | 154 to 156 | – | 91.87 ± 0.02 | 82.48 ± 0.32 | ≥ 100 | 87.4 ± 1.42 | 99.1 ± 1.47 | – | – | – | –

Now from value to compound, other results behind:

Row | melting point [°C] | IC50 [2] [µM] | Structure (SMILES) | IC50 (A549) [µM] | IC50 (MCF-7) [µM] | IC50 (SW-480) [µM] | IC50 at 24 h [1] [µM] | IC50 (SH-SY5Y) [µM] | cytotoxic effect on cell line of normal origin (Hek-293) | decrease in the level of malondialdehyde ([2]; compounds at 100 μM) [%] | migration capacity, decrease in the scratch width vs control (A549 cells; 24 h after the damage) | ability to suppress the migratory activity of A549 tumor cells (A549 cells; conclusion)
16 | 151 to 154 | – | ONc1cc(C(F)(F)F)ccc1-n1nnc2ccccc21 [8b, N-(2-(1H-benzotriazol-1-yl)-5-(trifluoromethyl)phenyl)hydroxylamine] | – | – | – | – | – | – | – | – | –
17 | 100 to 104 | – | CCOC(=O)c1ccc2c(c1)ncn2-c1cc(C(F)(F)F)ccc1-n1nnc2ccccc21 [7b, Ethyl 1-[2-(1H-benzotriazol-1-yl)-5-(trifluoromethyl)phenyl]-1H-benzimidazole-5-carboxylate] | ≥ 100 | ≥ 100 | ≥ 100 | ≥ 100 | ≥ 100 | – | – | – | –
18 | 153 to 156 | – | ONc1cc(C(F)(F)F)ccc1-n1cnc2ccccc21 [8a, N-(2-(1H-benzimidazol-1-yl)-5-(trifluoromethyl)phenyl)hydroxylamine] | – | – | – | – | – | – | – | – | –
19 | 124 to 128 | – | FC(F)(F)c1ccc(-n2nnc3ccccc32)c(-n2cnc3cc(C(F)(F)F)ccc32)c1 [7a, 1-{4-(trifluoromethyl)-2-[5-(trifluoromethyl)-1H-benzimidazol-1-yl]phenyl}-1H-benzotriazole] | ≥ 100 | ≥ 100 | ≥ 100 | ≥ 100 | ≥ 100 | – | – | – | –
20 | 136 to 141 | – | FC(F)(F)c1ccc2c(c1)ncn2-c1cc(Cl)ccc1-n1nnc2ccccc21 [7c, 1-{4-Chloro-2-[5-(trifluoromethyl)-1H-benzimidazol-1-yl]phenyl}-1H-benzotriazole] | ≥ 100 | 45.12 ± 0.22 | ≥ 100 | 36.27 ± 0.14 | ≥ 100 | – | – | – | –
21 | 178 to 181 | 1.11 ± 0.13 | CCOC(=O)c1ccc(Nc2cc(C(F)(F)F)ccc2-n2nnc3ccccc32)c(N)c1 [6c, Ethyl 3-amino-4-[2-(1H-benzotriazol-1-yl)-5-(trifluoromethyl)anilino]benzoate] | 37.68 ± 0.2 | 77.05 ± 0.67 | ≥ 100 | ≥ 100 | 20.94 ± 0.13 | did not exert a cytotoxic effect | 79 | did not find any differences | failed to demonstrate the ability to suppress the migratory activity
